≈ marks a conversion by molar mass, not a printed value.
Tests used:
[1] = tested on: Cryptococcus neoformans; test: Antifungal activity against Cryptococcus neoformans 32609 after 72 hrs by serial dilution method; type: functional; settings: Cryptococcus neoformans, 32609, 72 h
[2] = tested on: Pichia kudriavzevii; test: Antifungal activity against Candida krusei ATCC 6258 after 24 hrs by serial dilution method; type: functional; settings: ATCC 6258, 24 h
[3] = tested on: Candida parapsilosis; test: Antifungal activity against Candida parapsilosis ATCC 22019 after 24 hrs by serial dilution method; type: functional; settings: Lodderomyces parapsilosis, ATCC 22019, 24 h
[4] = tested on: Candida tropicalis; test: Antifungal activity against Candida tropicalis 087 after 24 hrs by serial dilution method; type: functional; settings: Candida tropicalis, 087, 24 h
[5] = tested on: Candida albicans; test: Antifungal activity against Candida albicans Y0109 after 24 hrs by serial dilution method; type: functional; settings: Y0109, 24 h
[6] = tested on: Aspergillus fumigatus; test: Antifungal activity against Aspergillus fumigatus 7544 after 7 days by serial dilution method; type: functional; settings: Aspergillus fumigatus, 7544, 168 h
[7] = Hydrophobicity, Log P of the compound; type: physicochemical; settings: octanol/water

Row | SMILES | MIC80 [1] | MIC80 [2] | MIC80 [3] | MIC80 [4] | MIC80 [5] | MIC80 [6] | logP [7]
1 | O=c1n(-c2ccccc2F)cnn1CCCN1CCN(CC(O)(Cn2cncn2)c2ccc(F)cc2F)CC1 (racemic) | > 64 µg/mL | > 64 µg/mL | 1 µg/mL (≈ 1.84 µM) | 1 µg/mL (≈ 1.84 µM) | 0.25 µg/mL (≈ 0.461 µM) | > 64 µg/mL | 2.02
2 | Cc1ccc(-n2cnn(CCCN3CCN(CC(O)(Cn4cncn4)c4ccc(F)cc4F)CC3)c2=O)cc1 (racemic) | 8 µg/mL (≈ 14.9 µM) | 1 µg/mL (≈ 1.86 µM) | 1 µg/mL (≈ 1.86 µM) | 0.25 µg/mL (≈ 0.464 µM) | 0.25 µg/mL (≈ 0.464 µM) | > 64 µg/mL | 2.28
3 | Cc1cccc(-n2cnn(CCCN3CCN(CC(O)(Cn4cncn4)c4ccc(F)cc4F)CC3)c2=O)c1 (racemic) | 8 µg/mL (≈ 14.9 µM) | 1 µg/mL (≈ 1.86 µM) | 1 µg/mL (≈ 1.86 µM) | 0.25 µg/mL (≈ 0.464 µM) | 0.25 µg/mL (≈ 0.464 µM) | 8 µg/mL (≈ 14.9 µM) | 2.28
4 | O=c1n(-c2ccccc2)cnn1CCCN1CCN(CC(O)(Cn2cncn2)c2ccc(F)cc2F)CC1 (racemic) | 8 µg/mL (≈ 15.3 µM) | 1 µg/mL (≈ 1.91 µM) | 1 µg/mL (≈ 1.91 µM) | 1 µg/mL (≈ 1.91 µM) | 0.25 µg/mL (≈ 0.477 µM) | > 64 µg/mL | 1.92
5 | CC(C)(C)c1ccc(-n2cnn(CCCN3CCN(CC(O)(Cn4cncn4)c4ccc(F)cc4F)CC3)c2=O)cc1 (racemic) | 1 µg/mL (≈ 1.72 µM) | 0.25 µg/mL (≈ 0.431 µM) | 0.25 µg/mL (≈ 0.431 µM) | 0.25 µg/mL (≈ 0.431 µM) | 0.25 µg/mL (≈ 0.431 µM) | 1 µg/mL (≈ 1.72 µM) | 3.59
6 | Cc1ccc(-n2cnn(CCCN3CCN(CC(O)(Cn4cncn4)c4ccc(F)cc4F)CC3)c2=O)c(C)c1 (racemic) | 8 µg/mL (≈ 14.5 µM) | 1 µg/mL (≈ 1.81 µM) | 1 µg/mL (≈ 1.81 µM) | 1 µg/mL (≈ 1.81 µM) | 1 µg/mL (≈ 1.81 µM) | > 64 µg/mL | 2.65
7 | Cc1ccc(-n2cnn(CCCN3CCN(CC(O)(Cn4cncn4)c4ccc(F)cc4F)CC3)c2=O)cc1C (racemic) | 4 µg/mL (≈ 7.24 µM) | 1 µg/mL (≈ 1.81 µM) | 0.25 µg/mL (≈ 0.452 µM) | 0.25 µg/mL (≈ 0.452 µM) | 0.25 µg/mL (≈ 0.452 µM) | 8 µg/mL (≈ 14.5 µM) | 2.65
8 | Cc1cc(C)cc(-n2cnn(CCCN3CCN(CC(O)(Cn4cncn4)c4ccc(F)cc4F)CC3)c2=O)c1 (racemic) | 4 µg/mL (≈ 7.24 µM) | 1 µg/mL (≈ 1.81 µM) | 1 µg/mL (≈ 1.81 µM) | 0.25 µg/mL (≈ 0.452 µM) | 0.25 µg/mL (≈ 0.452 µM) | 8 µg/mL (≈ 14.5 µM) | 2.65
9 | O=c1n(-c2cccc(Cl)c2)cnn1CCCN1CCN(CC(O)(Cn2cncn2)c2ccc(F)cc2F)CC1 (racemic) | 4 µg/mL (≈ 7.16 µM) | > 64 µg/mL | 0.25 µg/mL (≈ 0.447 µM) | 0.0625 µg/mL (≈ 0.112 µM) | 0.0625 µg/mL (≈ 0.112 µM) | 16 µg/mL (≈ 28.6 µM) | 2.54
10 | O=c1n(-c2ccc(Cl)cc2)cnn1CCCN1CCN(CC(O)(Cn2cncn2)c2ccc(F)cc2F)CC1 (racemic) | 4 µg/mL (≈ 7.16 µM) | 0.25 µg/mL (≈ 0.447 µM) | 0.25 µg/mL (≈ 0.447 µM) | 0.25 µg/mL (≈ 0.447 µM) | 0.0625 µg/mL (≈ 0.112 µM) | 8 µg/mL (≈ 14.3 µM) | 2.54
11 | O=c1n(-c2ccc(Cl)c(Cl)c2)cnn1CCCN1CCN(CC(O)(Cn2cncn2)c2ccc(F)cc2F)CC1 (racemic) | 1 µg/mL (≈ 1.69 µM) | 0.25 µg/mL (≈ 0.421 µM) | 0.25 µg/mL (≈ 0.421 µM) | 0.0625 µg/mL (≈ 0.105 µM) | 0.0625 µg/mL (≈ 0.105 µM) | 4 µg/mL (≈ 6.74 µM) | 3.17
12 | O=c1n(-c2ccc(Br)cc2)cnn1CCCN1CCN(CC(O)(Cn2cncn2)c2ccc(F)cc2F)CC1 (racemic) | 4 µg/mL (≈ 6.63 µM) | 1 µg/mL (≈ 1.66 µM) | 0.25 µg/mL (≈ 0.414 µM) | 0.25 µg/mL (≈ 0.414 µM) | 0.25 µg/mL (≈ 0.414 µM) | 8 µg/mL (≈ 13.3 µM) | 2.61
13 | O=c1n(-c2ccc(F)cc2)cnn1CCCN1CCN(CC(O)(Cn2cncn2)c2ccc(F)cc2F)CC1 (racemic) | > 64 µg/mL | > 64 µg/mL | 1 µg/mL (≈ 1.84 µM) | 0.25 µg/mL (≈ 0.461 µM) | 0.25 µg/mL (≈ 0.461 µM) | > 64 µg/mL | 2.02
14 | O=c1n(-c2ccc(I)cc2)cnn1CCCN1CCN(CC(O)(Cn2cncn2)c2ccc(F)cc2F)CC1 (racemic) | 4 µg/mL (≈ 6.15 µM) | 0.25 µg/mL (≈ 0.384 µM) | 0.25 µg/mL (≈ 0.384 µM) | 0.25 µg/mL (≈ 0.384 µM) | 0.25 µg/mL (≈ 0.384 µM) | 8 µg/mL (≈ 12.3 µM) | 2.57
15 | CCOc1ccc(-n2cnn(CCCN3CCN(CC(O)(Cn4cncn4)c4ccc(F)cc4F)CC3)c2=O)cc1 (racemic) | 8 µg/mL (≈ 14.1 µM) | 1 µg/mL (≈ 1.76 µM) | 1 µg/mL (≈ 1.76 µM) | 1 µg/mL (≈ 1.76 µM) | 0.25 µg/mL (≈ 0.44 µM) | > 64 µg/mL | 2.25
16 | Cc1ccc(-n2cnn(CCCN3CCN(CC(O)(Cn4cncn4)c4ccc(F)cc4F)CC3)c2=O)cc1Cl (racemic) | 1 µg/mL (≈ 1.75 µM) | 0.25 µg/mL (≈ 0.436 µM) | 0.25 µg/mL (≈ 0.436 µM) | 0.25 µg/mL (≈ 0.436 µM) | 0.0625 µg/mL (≈ 0.109 µM) | 4 µg/mL (≈ 6.98 µM) | 2.91
17 | O=c1n(-c2ccc(F)c(Cl)c2)cnn1CCCN1CCN(CC(O)(Cn2cncn2)c2ccc(F)cc2F)CC1 (racemic) | 1 µg/mL (≈ 1.73 µM) | 0.25 µg/mL (≈ 0.433 µM) | 0.25 µg/mL (≈ 0.433 µM) | 0.0625 µg/mL (≈ 0.108 µM) | 0.0625 µg/mL (≈ 0.108 µM) | 4 µg/mL (≈ 6.93 µM) | 2.65
18 | Cc1ccc(C)c(-n2cnn(CCCN3CCN(CC(O)(Cn4cncn4)c4ccc(F)cc4F)CC3)c2=O)c1 (racemic) | 8 µg/mL (≈ 14.5 µM) | 1 µg/mL (≈ 1.81 µM) | 1 µg/mL (≈ 1.81 µM) | 0.25 µg/mL (≈ 0.452 µM) | 0.25 µg/mL (≈ 0.452 µM) | > 64 µg/mL | 2.65
19 | Cc1cccc(C)c1-n1cnn(CCCN2CCN(CC(O)(Cn3cncn3)c3ccc(F)cc3F)CC2)c1=O (racemic) | > 64 µg/mL | 1 µg/mL (≈ 1.81 µM) | 4 µg/mL (≈ 7.24 µM) | 0.25 µg/mL (≈ 0.452 µM) | 1 µg/mL (≈ 1.81 µM) | > 64 µg/mL | 2.65
20 | Cc1ccc(-n2cnn(CCCN3CCN(CC(O)(Cn4cncn4)c4ccc(F)cc4F)CC3)c2=O)cc1[N+](=O)[O-] (racemic) | 16 µg/mL (≈ 27.4 µM) | > 64 µg/mL | 1 µg/mL (≈ 1.71 µM) | 0.25 µg/mL (≈ 0.428 µM) | 0.25 µg/mL (≈ 0.428 µM) | > 64 µg/mL | 2.11
21 | OC(Cn1cncn1)(Cn1cncn1)c1ccc(F)cc1F [FLUCONAZOLE] | 16 µg/mL (≈ 52.2 µM) | 0.25 µg/mL (≈ 0.816 µM) | 1 µg/mL (≈ 3.27 µM) | 0.0625 µg/mL (≈ 0.204 µM) | 0.25 µg/mL (≈ 0.816 µM) | > 64 µg/mL | –

Reference: ChEMBL document CHEMBL1909602, “Design and synthesis of novel triazole antifungal derivatives by structure-based bioisosterism” (Eur J Med Chem, 2011)
